Test results as given in US8975417B2, “Pyrazolopyrrolidine derivatives and their use in the treatment of disease” (Novartis AG, priority 2013, dated 2015).
Where two headings read alike, the source gives them in different places.

What was measured:
THP-1 cells = assay: Cell growth inhibition assay (CellTiter-Glo), THP-1; type: cell-based; conditions: Homo sapiens, read-out: THP-1 TGI
Experimental: (§1) Cell Growth Inhibition Assay
(§2) The human leukemia cell lines MV-4-11, THP-1 and K-562 were employed to characterize the effect of BET inhibitors on cellular proliferation and viability. Cells were obtained from the American Type Culture Collection (ATCC) and cultured at 37° C. in a humidified 5% CO2 incubator in the following media: MV-4-11: DMEM high glucose (Animed #1-26F01-I), 10% FCS (Animed #2-01F26-I), 4 mM L-Glutamine (Animed #5-10K50), 1 mM Sodium Pyruvate (Animed # G03625P), 1× Penicillin-Streptomycin (Animed # F12478P); K-562: Iscove's MEM (Animed #1-28F16-I), 10% FCS (Animed #2-01F26-I), 4 mM L-Glutamine (Animed #5-10K50), 1× Penicillin-Streptomycin (Animed # F12478P); THP-1: RPMI-1640 (Animed #1-41F01-I), 10% FCS (Animed #2-01F26-I), 2 mM L-Glutamine (Animed #5-10K50), 10 mM HEPES (Animed #5-31F100), 1 mM Sodium Pyruvate (Animed # G03625P), 1× Penicillin-Streptomycin (Animed # F12478P). The AML lines MV-4-11 and THP-1 are very sensitive to BET inhibitors and show massive cell death upon BET inhibition (Zuber et al., Nature, 478 (2011), 524-8). Compound-mediated suppression of cell proliferation/viability was assessed by quantification of cellular ATP levels using the CellTiter-Glo (CTG) reagent (Promega). Briefly, cells were seeded in 20 μl fresh medium into 384-well plates, followed by addition of 5 μL medium containing compound dilutions at 5-fold their final intended concentration. Dose-response effects were assessed by 3-fold serial dilutions of the test compound, starting at 10 μM. Following incubation of the cells for days at 37° C. and 5% CO2, the effect of inhibitors on cell viability was quantified following addition of 20 μl CTG and luminescence quantification (integration time: 100 ms) as per vendor manual, using a correspondingly equipped Tecan M200 multi-mode platereader (TECAN, Switzerland). For data analysis, the assay background value determined in wells containing medium, but no cells, was subtracted from all data points. To enable differentiation of cytotoxic from cytostatic compounds, the number of viable cells is assessed relative to that observed at the time of compound addition using a separate cell plate (day 0). The effect of a particular test compound concentration on cell proliferation/viability is expressed as percentage of the background- and day 0-corrected luminescence reading obtained for cells treated with vehicle only (DMSO, 0.1% final concentration), which is set as 100%, whereas that luminescence reading for wells containing medium is set as −100%. Compound concentrations leading to half-maximal (IC50) and total growth inhibition (TGI) were determined using standard four parameter curve fitting.

His-Brd2(60-472) = His-Brd2(60-472) (Homo sapiens (Human), UniProt P25440); assay: TR-FRET in-vitro binding assay for BRD2; conditions: biochemical
Experimental: (§3) TR-FRET In-Vitro Binding Assays for BRD2, BRD3, and BRD4:
(§4) All assays were performed in 384-well microtiter plates. Each assay plate contained 8-point serial dilutions for 40 test compounds, plus 16 high- and 16 low controls. Liquid handling and incubation steps were done on an Innovadyne Nanodrop Express equipped with a robotic arm (Thermo CatX, Perkin Elmer/Caliper Twister II) and an incubator (Liconic STX40, Thermo Cytomat 2C450). The assay plates were prepared by addition of 50 nl per well of compound solution in 90% DMSO HummingBird nanodispenser (Zinsser Analytic). The assay was started by stepwise addition of 4.5 μL per well of bromo domain protein (50 mM HEPES, pH 7.5, 0.005% Tween20, 0.1% BSA, 50 mM NaCl, 45 nM His-Brd2(60-472) or 45 nM His-Brd3(20-477) or 45 nM His-Brd4(44-477) all proteins produced in-house) and 4.5 μL per well of peptide solution (50 mM HEPES, pH 7.5, 0.005% Tween20, 0.1% BSA, 50 mM NaCl, 60 nM acetyl-histone H4 (AcK 5, 8, 12, 16) (Biosyntan GmbH)). Reactions were incubated at 30° C. for 35 minutes. Subsequently 4.5 μL per well detection mix (50 mM HEPES, pH 7.5, 0.005% Tween20, 0.1% BSA, 50 mM NaCl, 3 nM Eu-labeled anti-His6 antibody, 21 nM streptavidin-allophycocyanin) were added. After minutes incubation at 30° C., plates were measured in a Perkin Elmer EnVision multilabel reader.
(§5) Test compounds were dissolved in DMSO (10 mM) and transferred into 1.4 mL flat bottom or V-shaped Matrix tubes carrying a unique 2D matrix. The stock solutions were stored at […] if not used immediately. For the test procedure the vials were defrosted and identified by a scanner whereby a working sheet was generated that guided the subsequent working steps. Compound dilutions were made in 96 well plates. This format enabled the assay of maximally […] at 8 concentrations (single points) including 4 reference compounds, if desired (known BET inhibitors from the prior art, for this and other assays of the type disclosed herein). The dilution protocol included the production of “pre-dilution plates”, “master plates” and “assay plates”.
(§6) Polypropylene 96-well plates were used as pre-dilution plates. […] All dilution steps were done on a HamiltonSTAR robot.
(§7) 30 μL of individual compound dilutions including standard compound and controls of the 4 “pre-dilution plates” were transferred into a 384-well “master plate” including the following concentrations 10000, […], 1000, 300, 100, 30, 10 and 3 μM, respectively in 90% of DMSO.
(§8) Identical “assay plates” were then prepared by pipetting 50 nL each of compound dilutions of the “master plates” into 384-well “assay plates” by means of a HummingBird 384-channel dispenser. These plates were used directly for the assay which was performed in a total volume of 13.55 μL.

His-Brd4(44-477) = His-Brd4(44-477) (Homo sapiens (Human), UniProt O60885); assay: TR-FRET in-vitro binding assay for BRD4; conditions: biochemical
Experimental: as §3, §4, §5, §6, §7, §8

MV-4-11 cells = assay: Cell growth inhibition assay (CellTiter-Glo), MV-4-11; type: cell-based; conditions: Homo sapiens, MV4-11, read-out: MV-4-11 TGI
Experimental: as §1, §2

His-Brd3(20-477) = His-Brd3(20-477) (Homo sapiens (Human), UniProt Q15059); assay: TR-FRET in-vitro binding assay for BRD3; conditions: biochemical
Experimental: as §3, §4, §5, §6, §7, §8

K-562 cells = assay: Cell growth inhibition assay (CellTiter-Glo), K-562; type: cell-based, human
Experimental: as §1, §2

[1] = biological target: His-CREBBP (1081-1197) bromodomain (Homo sapiens (Human), UniProt Q92793); assay: AlphaScreen in-vitro binding assay for CREBBP; conditions: biochemical
Experimental: AlphaScreen In-Vitro Binding Assay for CREBBP
In order to assess bromodomain selectivity, we set up a binding assay using the bromodomain encoded by the CREBBP gene. […] Reactions were incubated at 30° C. for 35 minutes. Subsequently 4.5 μL per well detection mix (50 mM HEPES, pH 7.5, 0.005% Tween20, 0.02% BSA, 150 mM NaCl, 45 μg/ml Ni-chelate acceptor beads, 45 μg/mL streptavidin-donor beads) (Perkin Elmer)) were added. After 60 minutes incubation at room temperature, plates were measured in a Perkin Elmer EnVision multilabel reader. IC50 values were determined from percent inhibition values at different compound concentrations by non-linear regression analysis.
as §5, §6
These plates were used directly for the assay which was performed in a total volume of 13.55 μL.

[2] = Homo sapiens, K562, read-out: K-562 TGI

His-CREBBP (1081-1197) bromodomain, sequence (Q92793 1081-1197): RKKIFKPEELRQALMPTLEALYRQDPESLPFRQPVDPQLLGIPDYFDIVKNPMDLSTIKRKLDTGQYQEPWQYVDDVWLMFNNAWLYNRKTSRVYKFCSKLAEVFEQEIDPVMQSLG
His-Brd2(60-472), sequence (P25440 60-472): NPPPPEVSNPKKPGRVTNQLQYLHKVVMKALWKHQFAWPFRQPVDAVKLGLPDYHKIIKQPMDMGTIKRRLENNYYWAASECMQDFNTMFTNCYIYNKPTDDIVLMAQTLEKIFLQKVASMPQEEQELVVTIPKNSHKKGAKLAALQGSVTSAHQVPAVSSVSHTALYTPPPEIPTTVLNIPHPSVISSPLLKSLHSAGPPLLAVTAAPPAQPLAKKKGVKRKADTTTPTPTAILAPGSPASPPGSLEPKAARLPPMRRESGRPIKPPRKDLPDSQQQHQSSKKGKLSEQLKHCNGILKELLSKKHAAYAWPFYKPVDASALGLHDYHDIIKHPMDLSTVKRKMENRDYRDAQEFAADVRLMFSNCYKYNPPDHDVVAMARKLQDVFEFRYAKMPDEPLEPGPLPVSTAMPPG
His-Brd3(20-477), sequence (Q15059 20-477): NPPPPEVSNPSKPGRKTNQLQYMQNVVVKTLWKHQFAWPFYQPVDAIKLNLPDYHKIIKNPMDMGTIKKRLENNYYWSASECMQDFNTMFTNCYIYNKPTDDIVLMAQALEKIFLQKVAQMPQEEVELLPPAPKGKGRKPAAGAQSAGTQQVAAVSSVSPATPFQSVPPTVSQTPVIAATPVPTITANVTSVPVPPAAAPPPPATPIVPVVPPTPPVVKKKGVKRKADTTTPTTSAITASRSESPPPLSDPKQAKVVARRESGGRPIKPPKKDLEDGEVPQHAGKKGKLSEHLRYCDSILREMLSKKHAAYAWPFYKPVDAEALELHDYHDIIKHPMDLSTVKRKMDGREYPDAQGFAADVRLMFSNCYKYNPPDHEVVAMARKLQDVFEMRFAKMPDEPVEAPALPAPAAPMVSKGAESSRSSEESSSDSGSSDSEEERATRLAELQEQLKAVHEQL

Row | Structure (SMILES) | IC (total growth inhibition) (THP-1 cells) | IC50 (His-Brd2(60-472)) | IC50 (His-Brd4(44-477)) | IC (total growth inhibition) (MV-4-11 cells) | IC50 (His-Brd3(20-477)) | IC (total growth inhibition) (K-562 cells; [2]) | IC50 [1] | IC (total growth inhibition) (K-562 cells; read-out: K-562 TGI)
1 | COc1ncc(-n2nc(C)c3c2C(=O)N(c2cc(Cl)c(=O)n(C)c2)C3c2ccc(Cl)cc2)c(OC)n1 (stereo not shown) [Example 53, 5-(5-chloro-1-methyl-6-oxo-1,6-dihydropyridin-3-yl)-4-(4-chlorophenyl)-1-(2,4-dimethoxypyrimidin-5-yl)-3-methyl-4,5-dihydropyrrolo[3,4-c]pyrazol-6(1H)-one] | 0.685 µM | 0.098 µM | 0.13 µM | 0.372 µM | 0.12 µM | > 10 µM | – | –
2 | Cc1nn(C2CC2)c2c1[C@H](c1ccc(Cl)cc1)N(c1cc(C)c3nnc(C)n3c1)C2=O [Example 118, (S)-4-(4-chlorophenyl)-1-cyclopropyl-5-(3,8-dimethyl-[1,2,4]triazolo[4,3-a]pyridin-6-yl)-3-methyl-4,5-dihydropyrrolo[3,4-c]pyrazol-6(1H)-one] | > 10 µM | – | – | 3.35 µM | – | > 10 µM | – | –
3 | Cc1[nH]nc2c1C(c1ccc(Cl)cc1F)N(c1cc(C)c(=O)n(C)c1)C2=O (stereo not shown) [Example 196, 4-(4-chloro-2-fluorophenyl)-5-(1,5-dimethyl-6-oxo-1,6-dihydropyridin-3-yl)-3-methyl-4,5-dihydropyrrolo[3,4-c]pyrazol-6(2H)-one] | 0.53 µM | – | – | 0.266 µM | – | > 10 µM | – | –
4 | Cc1cc(N2C(=O)c3nn(C4CC4)c(C)c3[C@H]2c2ccc(Cl)cc2)cn(C)c1=O [Example 21] | 0.0687 µM | 0.048 µM | 0.047 µM | 0.0378 µM | 0.043 µM | > 10 µM | – | –
5 | Cc1c2c(nn1C1CC1)C(=O)N(c1cc(Cl)c(=O)n(C)c1)[C@H]2c1ccc(Cl)cc1 [Example 18, (S)-5-(5-chloro-1-methyl-6-oxo-1,6-dihydropyridin-3-yl)-4-(4-chlorophenyl)-2-cyclopropyl-3-methyl-4,5-dihydropyrrolo[3,4-c]pyrazol-6(2H)-one] | > 10 µM | 30 µM | 23 µM | 4.04 µM | 27 µM | > 10 µM | – | –
6 | COc1ncccc1-n1nc2c(c1C)C(c1ccc(F)cc1F)N(c1cc(C)c3nnc(C)n3c1)C2=O (stereo not shown) [Example 193, 4-(2,4-difluorophenyl)-5-(3,8-dimethyl-[1,2,4]triazolo[4,3-a]pyridin-6-yl)-2-(2-methoxypyridin-3-yl)-3-methyl-4,5-dihydropyrrolo[3,4-c]pyrazol-6(2H)-one] | 0.141 µM | – | – | 0.0985 µM | – | > 10 µM | – | –
7 | Cc1cc(N2C(=O)c3nn(C(C)C)c(C)c3C2c2ccc(Cl)cc2F)cn2c(C)nnc12 (stereo not shown) [Example 169, 4-(4-chloro-2-fluorophenyl)-5-(3,8-dimethyl-[1,2,4]triazolo[4,3-a]pyridin-6-yl)-2-isopropyl-3-methyl-4,5-dihydropyrrolo[3,4-c]pyrazol-6(2H)-one] | 0.121 µM | – | – | 0.0576 µM | – | > 10 µM | – | –
8 | CNc1cc(N2C(=O)c3c(c(C)nn3C3CC3)C2c2ccc(Cl)cc2)nn2c(C)nnc12 (racemic) [Example 113, 4-(4-chlorophenyl)-1-cyclopropyl-3-methyl-5-(3-methyl-8-(methylamino)-[1,2,4]triazolo[4,3-b]pyridazin-6-yl)-4,5-dihydropyrrolo[3,4-c]pyrazol-6(1H)-one] | – | 0.086 µM | 0.067 µM | – | 0.12 µM | – | > 37 µM | >10 µM
9 | Cc1c2c(nn1C)C(=O)N(c1cc(Cl)c(=O)n(C)c1)[C@@H]2c1ccc(Cl)cc1 [Example 7, (R)-5-(5-chloro-1-methyl-6-oxo-1,6-dihydropyridin-3-yl)-4-(4-chlorophenyl)-2,3-dimethyl-4,5-dihydropyrrolo[3,4-c]pyrazol-6(2H)-one] | 0.191 µM | 0.1 µM | 0.072 µM | 0.107 µM | 0.067 µM | > 10 µM | – | –
10 | COCc1nn(C2CC2)c2c1C(c1ccc(Cl)cc1)N(c1cc(C)c(=O)n(C)c1)C2=O (racemic) [Example 132, 4-(4-chlorophenyl)-1-cyclopropyl-5-(1,5-dimethyl-6-oxo-1,6-dihydropyridin-3-yl)-3-(methoxymethyl)-4,5-dihydropyrrolo[3,4-c]pyrazol-6(1H)-one] | – | 0.081 µM | 0.067 µM | – | 0.089 µM | – | 4.8 µM | –
11 | Cc1c2c(nn1C1CC1)C(=O)N(c1cc(Cl)c(=O)n(C)c1)C2c1ccc(Cl)cc1 (stereo not shown) [Example 17, 5-(5-chloro-1-methyl-6-oxo-1,6-dihydropyridin-3-yl)-4-(4-chlorophenyl)-2-cyclopropyl-3-methyl-4,5-dihydropyrrolo[3,4-c]pyrazol-6(2H)-one] | – | 0.18 µM | 0.14 µM | – | 0.097 µM | – | 1.3 µM | –
